Here are results for ten compounds from PMC12383012 (Antioxidants, 2025).

One may read the IC50 as the concentration at which inhibition is half-maximal. Usually EC50 stands for the concentration that produces a half-maximal response.

Entries after “also recorded” stand apart in the source; their conditions may differ.

One data set concerns the target T1, Aβ1–42 (Homo sapiens, UniProt P05067).
T1 construct: the Aβ1–42 peptide (Shanghai Royobiotech Co., Ltd., Shanghai, China); purchased Shanghai Royobiotech Co., Ltd
The data set is described as follows: Inhibition of Aβ1–42 self-aggregation (ThT fluorescence). In kind it is biochemical. The note with it: read-out: % Aβ42 Self-Agg Inhib. How it is done:
Firstly, the Aβ1–42 peptide (Shanghai Royobiotech Co., Ltd., Shanghai, China) was treated with 1,1,1,3,3,3-hexafluoropropan-2-ol (HFIP) and then dissolved in a CH3CN/Na2CO3 (300 μM)/NaOH (250 μM) (48.3:48.3:4.3, v/v/v) mixture in order to obtain a stable stock solution (500 μM).
Solutions of 1 mg of the assayed compounds in 2 mL of 1:1 (v/v) DMSO/MeOH (0.5 mg/mL) medium were prepared and then properly diluted with phosphate buffer (0.215 M, pH 8.0) to obtain a 120 μM final concentration. The Aβ1–42 self-aggregation inhibition assays were made based on a reported method, involving the fluorescence emission of thioflavin T (ThT). So, Aβ1–42 (40 μM) was incubated at 37 °C for 24 h in phosphate buffer and in the presence or absence of each ligand (40 μM for all compounds but 4AY4 and 4CY1, for which 20 μM was used). Then, […] 5 μM ThT in 50 mM glycine-NaOH (pH 8.5) buffer were added to each sample before transferring the samples to a 96-well microplate. Blank samples were also prepared without Aβ1–42. The ThT fluorescence was measured (446 and 485 nm excitation and emission wavelengths, respectively), and the percent of self-aggregation inhibition was determined by the equation:I% = 100 − (IFi/IF0 × 100) where IFi and IF0 are the fluorescence intensities, in the presence and the absence of the assayed compound, subtracted from the fluorescence intensities due to the respective blanks. The calculated values were obtained as the mean ± SEM of four different experiments conducted in duplicate. Statistical analysis was performed by a one-way analysis of variance (ANOVA) with a significance threshold set at p < 0.05.

For data set [1], the system named is SH-SY5Y human neuroblastoma cell line. The data set is described as follows: Cell viability dose-response screening (MTT). The data set is classed as cell-based. The note with it: 24 h. How it is done:
(§1) Cell viability was assessed using the colorimetric MTT (3-(4,5-dimethylthiazol-2-yl)-2,5-diphenyltetrazolium bromide) assay, as previously described.
(§2) The compounds’ solutions (4AY1-6, 4BY1-3, and 4CY1) were prepared in DMSO to create stock solutions at a concentration of 25 mM, which were then stored at −20 °C. A concentration range from 0.5 µM to 20 µM was screened to identify the highest non-toxic dose. The SH-SY5Y human neuroblastoma cell line (ATCC-CRL-2266) was grown in Dulbecco’s modified Eagle’s medium (DMEM) (Thermo Fisher Scientific-Gibco, Waltham, MA, USA) supplemented with 10% heat-inactivated fetal calf serum, 50 U/mL penicillin, and 50 µg/mL streptomycin at 37 °C in a 5% CO2 atmosphere. The cells were seeded at a density of 0.1 × 10^6 cells/mL (when 48-well plates were used) or 0.15 × 10^6 cells/mL (when 24-well plates were used) one day before the experiment commenced. Following the seeding, the cells were treated with the selected concentrations of compounds for 24 h. After treatment, the cells were washed with PBS and incubated with 150 µL (in 48-well plates) or 200 µL (in 24-well plates) of MTT (0.5 mg/mL) for 2 h at 37 °C with 5% CO2. During this incubation, cellular dehydrogenases converted MTT into formazan crystals, which were subsequently dissolved in 150 µL (in 48-well plates) or 200 µL (in 24-well plates) of 0.04 M HCl/isopropanol, and the absorbance was measured at 570 nm.

In data set [2] the target is T2, equine butyrylcholinesterase (eqBChE) (Equus caballus, UniProt P81908).
T2 construct: purchased
The data set is described as follows: Butyrylcholinesterase inhibition (adapted Ellman's method). The data set is classed as biochemical. Particulars: for IC50: eqBChE, read-out: BChE Inhib IC50; for SI (selectivity index): SI = IC50 (AChE)/IC50 (BChE). How it is done: (§3) The enzyme inhibition of electric eel acetylcholinesterase (eeAChE) and equine butyrylcholinesterase (eqBChE) was performed according to an adaptation of Elmman’s method. Stock solutions of 1 mg of each compound in 1 mL MeOH were prepared, and adequate dilutions were further made for each ligand. A control measurement (5 replicates without a ligand) and a calibration curve of 5 points with 3 replicates per point were conducted. Each solution included fixed volumes of 4-(2-hydroxyethyl)-1-piperazine-ethanesulfonic acid (HEPES) and cholinesterase (eeAChE or eqBChE), with different volumes of ligand solution. A blank solution containing HEPES and MeOH was also prepared at the same time. After 15 min of reaction, […] (AChI) or butyrylcholine iodide (BChI) and 5,5’-dithiobis-(2-nitrobenzoic acid) (DTNB) were added to both solutions contained in spectrophotometer cuvettes, and the absorbance at 405 nm was recorded for 5 min (time interval = 1 s, slid width = 1 nm). The slope for each calibration point (absorbance versus reaction time) was determined, and the percent inhibition was calculated by using the equation: %Inhibition=100−(vi/v0×100). where vi is the reaction rate (slope) for each point of the calibration with the ligand, and v0 is the initial reaction rate (slope) for the control point (without ligand). Finally, the five-point linear regression (10–50 µL of ligand solution) corresponding to the percentage of enzyme inhibition vs. the compound concentration allowed for the determination of the half maximal inhibitory concentration (IC50, µM) (compound concentration for which enzyme activity is reduced to half). Experiments were performed twice for each ligand. Statistical analysis was performed by a one-way analysis of variance (ANOVA) with a significance threshold set at p < 0.05.

Data set [3] is described as follows: Free-radical-scavenging assay (DPPH method). Particulars: for % AA (radical-scavenging activity): compound concentration 100 μM; for EC50: read-out: AA EC50. How it is done:
The percentage of radical-scavenging activity (%AA, antioxidant capacity) of the RIV hybrids was first determined by the 2,2-diphenyl-1-picrylhydrazyl (DPPH) method using a compound concentration of 100 μM. […] Each calibration point was kept 30 min in darkness, and afterwards, the absorbance was measured at 517 nm. The corresponding antioxidant activity (%AA) was calculated using the equation %AA=ADPPH−Aligand/ADPPH×100. From the plot of %AA versus ligand concentration, EC50 was determined. Three independent experiments were performed, and a statistical analysis was conducted by a one-way analysis of variance (ANOVA) with the significance threshold set at p < 0.05.
The RIV hybrids were screened for their radical-scavenging activity by using the DPPH method. These assays were conducted in two stages: first, preliminary analyses were performed for all the compounds to evaluate the percentage of radical-scavenging activity by using a compound concentration of 100 μM. Afterwards, the compounds showing more than 50% antioxidant activity (AA), under those conditions, were further assessed to evaluate the respective EC50 values.
(In general: Loss of DPPH colour is used to gauge radical scavenging.)

In data set [4] the target is T3, electric eel acetylcholinesterase (eeAChE) (Electrophorus electricus, UniProt O42275).
T3 construct: purchased
The data set is described as follows: Acetylcholinesterase inhibition (adapted Ellman's method). In kind it is biochemical. The note with it: read-out: AChE Inhib IC50. How it is done:
as §3

In data set [5] the test system is SH-SY5Y human neuroblastoma cell line. The data set can be described thus: Protection against iron/ascorbate-induced toxicity (MTT). The data set is classed as cell-based. The note with it: 1 h pre-treatment at highest nontoxic concentration, then 24 h with Fe/Asc. How it is done: as §1, §2
To evaluate the compounds’ protective effects against toxicity induced by Aβ1–42 or iron/ascorbate, the cells were pre-treated with each compound for one hour before adding Aβ1–42 or iron/ascorbate, followed by an additional 24-h incubation. Aβ1–42 (Bachem, Torrance, CA, USA) was prepared in sterile water to create a 443 µM stock solution and was added to the cells at a final concentration of 1 µM. Ferrous sulfate and L-ascorbic acid (Sigma Chemical Co., St. Louis, MO, USA) were introduced into the medium at final concentrations of 5 mM and 2.5 mM, respectively. […]

T3 sequence (O42275 24-633): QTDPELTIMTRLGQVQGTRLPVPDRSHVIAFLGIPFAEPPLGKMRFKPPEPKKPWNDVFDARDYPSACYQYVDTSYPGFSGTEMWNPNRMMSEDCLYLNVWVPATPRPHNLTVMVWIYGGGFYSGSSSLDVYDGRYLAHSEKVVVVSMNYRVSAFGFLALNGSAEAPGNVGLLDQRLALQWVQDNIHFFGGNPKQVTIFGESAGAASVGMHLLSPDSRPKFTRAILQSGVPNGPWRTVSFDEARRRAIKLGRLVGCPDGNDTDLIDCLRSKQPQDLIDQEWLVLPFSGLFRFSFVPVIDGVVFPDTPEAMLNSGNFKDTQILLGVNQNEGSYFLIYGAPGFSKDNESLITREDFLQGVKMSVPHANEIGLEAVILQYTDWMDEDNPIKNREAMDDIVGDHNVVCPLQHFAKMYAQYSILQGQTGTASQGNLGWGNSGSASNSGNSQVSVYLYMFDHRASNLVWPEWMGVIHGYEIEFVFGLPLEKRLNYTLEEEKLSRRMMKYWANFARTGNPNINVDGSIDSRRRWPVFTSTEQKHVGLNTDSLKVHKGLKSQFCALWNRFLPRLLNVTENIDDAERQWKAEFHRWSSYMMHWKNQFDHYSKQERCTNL
T2 sequence (P81908 whole entry): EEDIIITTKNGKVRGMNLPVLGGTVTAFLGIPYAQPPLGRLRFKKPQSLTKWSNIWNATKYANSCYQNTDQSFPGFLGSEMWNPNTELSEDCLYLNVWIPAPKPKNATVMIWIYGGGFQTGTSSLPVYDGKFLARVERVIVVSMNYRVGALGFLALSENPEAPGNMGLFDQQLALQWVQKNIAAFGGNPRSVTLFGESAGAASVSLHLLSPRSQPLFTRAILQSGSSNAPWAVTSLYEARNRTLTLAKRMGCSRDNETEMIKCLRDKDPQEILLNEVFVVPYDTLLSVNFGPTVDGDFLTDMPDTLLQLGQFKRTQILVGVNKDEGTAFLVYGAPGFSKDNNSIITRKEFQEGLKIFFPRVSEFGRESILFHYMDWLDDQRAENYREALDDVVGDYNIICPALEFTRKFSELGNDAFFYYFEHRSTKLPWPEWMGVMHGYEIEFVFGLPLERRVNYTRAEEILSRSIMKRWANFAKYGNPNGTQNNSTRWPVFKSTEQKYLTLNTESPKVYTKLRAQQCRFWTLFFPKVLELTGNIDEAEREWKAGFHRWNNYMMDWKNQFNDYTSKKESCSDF
T1 sequence (P05067 672-713): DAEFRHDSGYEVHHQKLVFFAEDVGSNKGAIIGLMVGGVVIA

Consider `CCN(C)C(=O)Oc1cccc(NC(=O)c2cc(OC)c(O)c(OC)c2)c1` [4AY1, 3-(4-Hydroxy-3,5-dimethoxybenzamido)phenyl ethyl(methyl)carbamate], for which the inhibition at 40 µM on Aβ1–42 worked out at 20 ± 2%. In data set [1], this compound had a highest nontoxic concentration of 10 µM. For the same compound, the 50% inhibitory concentration (IC50) in data set [2] was 31 ± 2 µM; in data set [4], above 200 µM. Further, in data set [3], the “% AA (radical-scavenging activity)” value is below 50%.

With `CCN(C)C(=O)Oc1cccc(NC(=O)C2(C)CCc3c(C)c(O)c(C)c(C)c3O2)c1` (stereo not shown) [4AY2, 3-(6-Hydroxy-2,5,7,8-tetramethylchromane-2-carboxamido)phenyl ethyl(methyl)carbamate], in data set [5], the “rescue of cell viability after iron/ascorbate treatment” value is reported as “capable of rescuing the cell viability; also recorded: significantly improved cell viability”. Further, on Aβ1–42, the inhibition at 40 µM was determined as 45 ± 4%. For the same compound, the highest nontoxic concentration turned out to be 1 µM in data set [1] (dose given for the Aβ1–42 experiments) and 2.5 µM in data set [1] (dose given for the iron/ascorbate experiments). The “SI (selectivity index)” value in data set [2] is given as 1.9. For the same compound, the IC50 in data set [2] came out at 36 ± 3 µM; in data set [4], 69 ± 7 µM. For the same compound, the “% AA (radical-scavenging activity)” value in data set [3] was found to be 95 ± 3%. The EC50 in data set [3] turned out to be 18.1 ± 0.4 µM.

Take `CCN(C)C(=O)Oc1cccc(NC(=O)/C=C/c2ccc3c(c2)OCO3)c1` [4AY3, (E)-3-(3-(Benzo[d][1,3]dioxol-5-yl)acrylamido)phenyl ethyl(methyl)carbamate]: the inhibition at 40 µM at Aβ1–42 was 45 ± 4%. The highest nontoxic concentration in data set [1] amounted to 5 µM. In addition, in data set [2], the “SI (selectivity index)” value stood at 16.3 and the concentration for half-maximal inhibition (IC50) was 3.1 ± 0.4 µM. Further, the “% AA (radical-scavenging activity)” value in data set [3] is below 50%. Besides, in data set [4], the IC50 came out at 50.5 ± 0.1 µM.

For `CCN(C)C(=O)Oc1cccc(NC(=O)/C=C/c2ccc(O)c(O)c2)c1` [4AY5, (E)-3-(3-(3,4-Dihydroxyphenyl)acrylamido)phenyl ethyl(methyl)carbamate], the inhibition at 40 µM at Aβ1–42 stood at 82 ± 5%. For the same compound, the highest nontoxic concentration in data set [1] is reported as 0.5 µM. In data set [2], the “SI (selectivity index)” value was determined as 15.3 and the IC50 came to 7.2 ± 0.3 µM. Also, in data set [3], the “% AA (radical-scavenging activity)” value is 96 ± 2% and the EC50 came to 15.7 ± 0.4 µM. In addition, the IC50 in data set [4] is 110 ± 5 µM.

With `CCN(C)C(=O)Oc1cccc(NC(=O)/C=C/C=C/c2ccc(O)c(O)c2)c1` [4AY6, 3-((2E,4E)-5-(3,4-Dihydroxyphenyl)penta-2,4-dienamido)phenyl ethyl(methyl)carbamate], on Aβ1–42, the inhibition at 40 µM was 75 ± 7%. The same compound yielded a highest nontoxic concentration in data set [1] of 1 µM. In data set [2], the “SI (selectivity index)” value turned out to be 0.9 and the IC50 turned out to be 5.7 ± 0.6 µM. Also, in data set [3], the “% AA (radical-scavenging activity)” value is 93.1 ± 0.8% and the EC50 came out at 28 ± 0.4 µM. In data set [4], the IC50 came to 5 ± 1 µM.

For `CCN(C)C(=O)Oc1cccc(CNC(=O)c2cc(OC)c(O)c(OC)c2)c1` [4BY1, 3-((4-Hydroxy-3,5-dimethoxybenzamido)methyl)phenyl ethyl(methyl)carbamate], the inhibition at 40 µM on Aβ1–42 is 58 ± 6%. This compound came in with a highest nontoxic concentration in data set [1] of 15 µM. Also, the IC50 in data set [2] is 75 ± 0.6 µM; in data set [4], above 200 µM. Further, the “% AA (radical-scavenging activity)” value in data set [3] is below 50%.

Take `CCN(C)C(=O)Oc1cccc(CNC(=O)/C=C/c2ccc3c(c2)OCO3)c1` [4BY3, (E)-3-((3-(Benzo[d][1,3]dioxol-5-yl)acrylamido)methyl)phenyl ethyl(methyl)carbamate]: the inhibition at 40 µM at Aβ1–42 was determined as 29 ± 3%. This compound also came in with a highest nontoxic concentration in data set [1] of 1 µM. Further, the “SI (selectivity index)” value in data set [2] is 101. The IC50 worked out at 0.9 ± 0.2 µM in data set [2] and 91 ± 6 µM in data set [4]. Moreover, the “% AA (radical-scavenging activity)” value in data set [3] is reported as below 50%.

Consider `COc1cc(C(=O)Nc2cccc(OC(=O)N(C)C)c2)cc(OC)c1O` [4CY1, 3-(4-Hydroxy-3,5-dimethoxybenzamido)phenyl dimethylcarbamate], for which the inhibition at 20 µM on Aβ1–42 (24 h) was determined as 31 ± 3%. Besides, the highest nontoxic concentration in data set [1] was found to be 5 µM. Besides, the IC50 is 68 ± 7 µM in data set [2] and above 200 µM in data set [4]. For the same compound, the “% AA (radical-scavenging activity)” value in data set [3] is below 50%.

On to `COc1cc(/C=C/C(=O)CC(=O)/C=C/c2ccc(O)c(OC)c2)ccc1O` [Curcumin, reference compound], for which the inhibition at 40 µM on Aβ1–42 turned out to be 77 ± 1%.

Regarding `Cc1c(C)c2c(c(C)c1O)CCC(C)(C(=O)O)O2` (stereo not shown) [Trolox, 6-hydroxy-2,5,7,8-tetramethylchromane-2-carboxylic acid, reference compound], the EC50 in data set [3] came to 13.8 ± 0.2 µM.
